The source made the active and inactive calls. No cut-off for these calls is given here.
Tests used:
Format in all cases: functional
[1] = test system: Bacillus subtilis; assay: Antimicrobial activity against Bacillus subtilis subsp. subtilis str. 168 assessed as growth inhibition zone after 18 hrs by disc diffusion method
[2] = test system: Escherichia coli; assay: Antimicrobial activity against Escherichia coli JM109 assessed as growth inhibition zone after 18 hrs by disc diffusion method
[3] = test system: Staphylococcus aureus; assay: Antimicrobial activity against Staphylococcus aureus CECT976 assessed as growth inhibition zone after 18 hrs by disc diffusion method
[4] = test system: Pseudomonas aeruginosa; assay: Antimicrobial activity against Pseudomonas aeruginosa PAO1 assessed as growth inhibition zone after 18 hrs by disc diffusion method

CC1(C)S[C@@H]2[C@H](NC(=O)[C@H](N)c3ccccc3)C(=O)N2[C@H]1C(=O)O [AMPICILLIN]
inhibition zone (IZ) [1]: 23 mm
inhibition zone (IZ) [2]: 20 mm
inhibition zone (IZ) [3]: 10 mm
inhibition zone (IZ) [4]: 7 mm

CN[C@H]1CC[C@H](c2ccc(O)c3c2C(=O)C24OC2([C@@H](C)O[C@H](CC(=O)O)[C@@H]4O)[C@H]3O)O[C@@H]1C (stereo partly specified)
inhibition [1]: Active
inhibition [2]: inactive
inhibition [3]: Active
inhibition [4]: inactive

CN[C@H]1CC[C@H](c2ccc(O)c3c2C(=O)C24OC2([C@@H](C)O[C@@H]2CC(=O)O[C@@H]24)[C@H]3O)O[C@@H]1C (stereo partly specified)
inhibition [1]: Active
inhibition [2]: inactive
inhibition [3]: Active
inhibition [4]: inactive

CN[C@@H]1[C@@H](O[C@H]2O[C@H](CO)[C@@H](N)[C@H](O)[C@H]2O)OC2C[C@@H](N)[C@@H](O[C@H]3[C@H](O)[C@@H](O)[C@H](N)C[C@@H]3N)OC2[C@@H]1O (stereo partly specified) [APRAMYCIN]
inhibition zone (IZ) [1]: 10 mm
inhibition zone (IZ) [2]: 7 mm
inhibition zone (IZ) [3]: 7 mm
inhibition zone (IZ) [4]: 15 mm

Source: ChEMBL document CHEMBL4052598, “Discovery of C-Glycosylpyranonaphthoquinones in Streptomyces sp. MBT76 by a Combined NMR-Based Metabolomics and Bioinformatics Workflow” (2017)
